Here are results for 13 compounds from US20220177462A1, “SUBSTITUTED HETEROCYCLIC AMIDE COMPOUND AND PREPARATION METHOD THEREFOR AND PHARMACEUTICAL USE THEREOF” (GENFLEET THERAPEUTICS (SHANGHAI) INC., priority 2019, published 2022).

One assay addresses T1, RIPK1 enzyme (Homo sapiens, UniProt Q13546).
T1 construct: purchased Eurofins 16-022
T1 sequence (Q13546 1-671): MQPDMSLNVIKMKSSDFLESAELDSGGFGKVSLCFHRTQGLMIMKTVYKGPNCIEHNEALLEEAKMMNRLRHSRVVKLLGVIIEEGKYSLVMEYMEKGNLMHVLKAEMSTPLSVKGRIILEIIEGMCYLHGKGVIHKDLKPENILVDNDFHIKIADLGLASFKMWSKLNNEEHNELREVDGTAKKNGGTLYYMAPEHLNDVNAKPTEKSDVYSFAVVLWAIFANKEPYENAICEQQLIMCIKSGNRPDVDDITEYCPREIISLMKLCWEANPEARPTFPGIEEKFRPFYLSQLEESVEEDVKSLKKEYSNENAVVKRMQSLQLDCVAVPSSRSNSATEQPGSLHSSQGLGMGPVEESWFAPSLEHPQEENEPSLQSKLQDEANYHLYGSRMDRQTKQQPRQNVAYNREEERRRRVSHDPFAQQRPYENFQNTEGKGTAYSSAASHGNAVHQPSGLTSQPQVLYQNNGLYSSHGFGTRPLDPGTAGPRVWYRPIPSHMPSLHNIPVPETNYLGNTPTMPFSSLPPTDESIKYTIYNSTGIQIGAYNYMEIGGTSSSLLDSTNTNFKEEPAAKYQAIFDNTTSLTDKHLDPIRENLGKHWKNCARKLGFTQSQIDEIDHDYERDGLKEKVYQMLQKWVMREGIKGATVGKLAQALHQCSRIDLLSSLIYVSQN
The assay can be described thus: Inhibitory activity of the compounds against RIPK1 enzyme (33P-ATP, MBP substrate). The assay is classed as biochemical. The settings on record: 36 nM RIPK1, 0.33 mg/ml MBP, 155 μM P33-labeled ATP, room temperature 2 hours. On the procedure:
The test compound was dissolved in DMSO to prepare a 10 mM stock solution. The stock solution was diluted in 3.16 folds with DMSO to a series of gradient concentrations. Then, the resultant solution was diluted in 50 folds with MOPS buffer pH 7.0 to prepare a working solution. The working solution was mixed with 36 nM RIPK1 (final concentration) and 0.33 mg/ml substrate MBP homogeneously. Thereafter, 10 mM magnesium ion and 155 μM P^33 isotopically labeled ATP were added for the reaction. The final concentration of DMSO was 2%. After the reaction was carried out at room temperature for 2 hours phosphoric acid was added to terminate the reaction. The final reaction system was tested using a liquid scintillation counter after treatment. The result obtained by subtracting a blank control from the tested value was converted to activity percentage as compared to the readout value of control group. The activity percentage was plotted against the final concentration of respective compound using a 4-parameter fitting to obtain the inhibitory IC50 of the compound against RIPK1 enzyme.

A further assay concerns U937 cells. Description: Inhibitory activity against programmed necroptosis of U937 cells induced by TNF-α. The format is cell-based, human. The note with it: read-out: U937 IC50, 100 ng/ml human TNF-α and 25 μM Q-VD-Oph, 48 hours, CellTiter-Glo survival rate. On the procedure: The U937 cell strain which was used in the following Testing Examples was derived from ATCC, No.: CRL-1593.2, batch No.: 63479999, culture medium: RPMI-1640+10% FBS.
The compound was dissolved in DMSO to prepare a 10 mM stock solution. The stock solution was diluted in 3.16 folds with DMSO to a series of gradient concentrations. Then, the resultant solution was diluted in 250 folds with a culture medium to prepare a working solution. The U937 cells were inoculated in a 384-well plate at 5000/well. The compound at respective concentration was added to each of the cells, and was mixed with the cells homogeneously. 100 ng/ml human TNF-α and 25 μM Q-VD-Oph were added simultaneously to induce programmed necroptosis of the cells. The final concentration of DMSO was 2%. The cells were placed in the incubator at 37° C. and 5% CO2 for further culture of 48 hours. Celltiter-Glo reagent was used for detection. After adequate pyrolysis reaction, the chemiluminescence readout value was recorded by a microplate reader. The survival rate was calculated from the detection results using the equation as follows: SR (%)=(RLU compound−RLU blank)/(RLU high control−RLU blank)×100%. The survival rate was plotted against the final concentration of respective compound using a 4-parameter fitting to calculate the inhibitory IC50 of the compound against programmed necroptosis of cells induced by TNF-a.
Background: ATP-based viability assays read luminescence as a measure of living cells.

Where two headings read alike, the source gives them in different places.

Consider `COc1ncc(-c2ccc3nc(NC(C)=O)sc3c2)cc1C(=O)NC(C)c1ccccc1OC(F)(F)F` (single isomer, unassigned) [Compound Z5, 5-(2-acetylaminobenzothiazol-6-yl)-2-methoxy-N-(1-(2-(trifluoromethoxy)phenyl)ethyl)nicotinamide], for which the IC50 (as a rule, the concentration that gives 50% inhibition) at RIPK1 enzyme stood at 29 nM; in the assay on U937 cells, 15 nM. With `COc1ncc(-c2ccc3nc(NC(=O)C4CC4)sc3c2)cc1C(=O)NC(C)c1ccccc1OC(F)(F)F` (stereo not shown) [Compound Z56, 5-(2-(cyclopropylformamido)benzo[d]thiazol-6-yl)-2-methoxy-N-(1-(2-(trifluoromethoxy)phenyl)ethyl)nicotinamide], the half-maximal inhibitory concentration (IC50) on RIPK1 enzyme came to 36 nM; in the assay on U937 cells (Homo sapiens, U-937, 48 h), 8 nM. As for `Nc1nc2ccc(-c3cnc4c(c3)C(=O)N(Cc3cc(OC(F)(F)F)ccc3F)CC4)cc2s1` [Compound Z55, 3-(2-aminobenzo[d]thiazol-6-yl)-6-(2-fluoro-5-(trifluoromethoxy)benzyl)-7,8-dihydro-1,6-naphthyridin-5(6H)-one], the IC50 was determined as 39 nM against RIPK1 enzyme and 8 nM with U937 cells (Homo sapiens, U-937, 48 h).

The compound `COc1ncc(-c2ccc3nc(N)sc3c2)cc1C(=O)NCc1cccc(OC(F)(F)F)c1` [Compound Z4, 5-(2-aminobenzo[d]thiazol-6-yl)-2-methoxy-N-(3-(trifluoromethoxy)benzyl)nicotinamide] showed an IC50 against RIPK1 enzyme of 17 nM. The compound `Cc1ncc(C(=O)NC(C)c2ccccc2OC(F)(F)F)cc1-c1ccc2nc(N)sc2c1` (stereo not shown) [Compound Z10, 5-(2-aminobenzo[d]thiazol-6-yl)-6-methyl-N-(1-(2-(trifluoromethoxy)phenyl)ethyl)nicotinamide] displayed a 50% inhibitory concentration (IC50) on RIPK1 enzyme of 64 nM. On to `COc1ncc(-c2ccc3nc(N)sc3c2)cc1C(=O)NC(C)c1cccc(OC(F)(F)F)c1` (stereo not shown) [Compound Z3, 5-(2-aminobenzo[d]thiazol-6-yl)-2-methoxy-N-(1-(3-(trifluoromethoxy)phenyl)ethyl)nicotinamide], for which, on RIPK1 enzyme, the half-maximal inhibitory concentration (IC50) is 32 nM.

For `CC(NC(=O)c1cc(-c2ccn3nc(N)nc3c2)c2cc[nH]c2c1)c1ccccc1OC(F)(F)F` (stereo not shown) [Compound Z25, 4-(2-amino-[1,2,4]triazolo[1,5-a]pyridin-7-yl)-N-(1-(2-(trifluoromethoxy)phenyl)ethyl)-1H-indole-6-carboxamide], the IC50 in the assay with U937 cells (Homo sapiens, U-937, 48 h) is 140 nM.

For the compound `CC(c1ccc(F)cc1)n1cc(NC(=O)c2cc(-c3ccn4nc(N)nc4c3)c3cnn(C)c3c2)cn1` (stereo not shown) [Compound Z60, 4-(2-amino-[1,2,4]triazolo[1,5-a]pyridin-7-yl)-N-(1-(1-(4-fluorophenyl)ethyl)-1H-pyrazol-4-yl)-1-methyl-1H-indazole-6-carboxamide], the IC50 with U937 cells (Homo sapiens, U-937, 48 h) is 213 nM. On to `COc1ncc(-c2ccc3nc(N)sc3c2)cc1C(=O)N1CCCC(Cc2ccc(F)cc2)C1` (stereo not shown) [Compound Z17, (5-(2-aminobenzo[d]thiazol-6-yl)-2-methoxypyridin-3-yl)(3-(4-fluorobenzyl)piperidin-1-yl)methanone], for which, in the assay with U937 cells (Homo sapiens, U-937, 48 h), the IC50 was determined as 4 nM.

With `COc1ncc(-c2ccc3nc(N)sc3c2)cc1C(=O)NCCCc1ccccc1` [Compound Z16, 5-(2-aminobenzo[d]thiazol-6-yl)-2-methoxy-N-(3-phenylpropyl)nicotinamide], the IC50 with U937 cells (Homo sapiens, U-937, 48 h) was found to be 26 nM. Turning to `COc1ncc(C(=O)NC(C)c2ccccc2OC(F)(F)F)cc1-c1ccc2nc(N)sc2c1` (stereo not shown) [Compound Z7, 5-(2-aminobenzo[d]thiazol-6-yl)-6-methoxy-N-(1-(2-(trifluoromethoxy)phenyl)ethyl)nicotinamide], inhibition at RIPK1 enzyme was half-maximal at 84 nM (IC50). For `CC(NC(=O)c1cncc(-c2ccc3nc(N)sc3c2)c1)c1ccccc1OC(F)(F)F` (stereo not shown) [Compound Z9, 5-(2-aminobenzo[d]thiazol-6-yl)-N-(1-(2-(trifluoromethoxy)phenyl)ethyl)nicotinamide], 60 nM corresponded to half-maximal inhibition against RIPK1 enzyme (IC50).

For the compound `Cn1ncc2c(-c3ccn4nc(N)nc4c3)cc(C(=O)NCc3cccnc3OC3CCCC3)cc21` [Compound Z57, 4-(2-amino-[1,2,4]triazolo[1,5-a]pyridin-7-yl)-N-((2-(cyclopentyloxy)pyridin-3-yl)methyl)-1-methyl-1H-indazole-6-carboxamide], the IC50 in the assay with U937 cells (Homo sapiens, U-937, 48 h) came out at 11 nM.
